Experimental data: patent US9266813B2, “Stilbenoid compound as inhibitor for squamous carcinoma and hepatoma and uses thereof” (AnnCare Bio-Tech Center Inc., priority 2013, dated 2016)
In brackets after ≈: the same amount, converted by molar mass. Like-named read-outs stand apart in the source and are kept apart here.

Tests used:
Water solubility assay = assay type: physicochemical; conditions: read-out: Water solubility, Content
Text: The water solubility of the compounds of the present invention can be determined by methods known in the art and the result is shown in Table 3.

CAR cells = test: MTT assay, antiproliferation on cisplatin-resistant head and neck squamous carcinoma (CAR) cells; assay type: cell-based, human; conditions: Homo sapiens, CAR cells, MTT
Experimental: The human head and neck carcinoma cell line CAL27 was obtained from American Tissue Culture Collection (ATCC). The cisplatin-resistant cell line CAR (CAL27-cisplatin resistance) was established by clonal selection of CAL27 using 10 cycles of 1 passage treatment with 10-80 μM of cisplatin (Sigma-Aldrich Corp. (St. Louis, Mo., USA) followed by a recovery period of another passage. CAR cells were cultivated in Dulbecco's modified Eagle's medium (DMEM) supplemented with 10% FBS, 100 μg/mL streptomycin, 100 U/mL penicillin G, 2 mM L-glutamine (Gibco by Life Technologies (Carlsbad, Calif., USA)) and 80 μM of cisplatin (Sigma-Aldrich Corp. (St. Louis, Mo., USA).
(§1) Antiproliferations of compound 2-4 were determined by an improved MTT assay. The CAR cells were individually plated at a density of 2×10^4 cells/well onto 96-well plates and treated with Dimethyl sulfoxide (DMSO) alone (0.5% (v/v) in media served as a vehicle control) and various concentrations (0, 25, 50, 75 and 100 μM) of compound 2-4 for 24 and 48 hours. Following the above treatments, the supernatant was discarded before a 100 μL solution of MTT (500 μg/ml) was added to each well for 4 hours at 37 °C. After incubation, the medium was replaced by the addition of 200 μL DMSO to solubilize the violet formazan crystal produced from MTT. The absorbance of the dissolved formazan grained within the cells was measured at 570 nm by a microplate reader to calculate viability (data shown as % of control).
(§2) Please refer to Table 1. Hep3B cells and CAR cells were treated by different concentrations of the compounds of the invention for 48 and 72 hours, and the antiprolifieration effect of such compounds was evaluated using MTT assay. Data are presented as IC50 (μM), the concentration of 50% proliferation-inhibitory effect.
MTT assay was utilized and CAR cells were treated with compound 2-4 in different concentration for 24, 48 and 72 hours. […] The IC50 after 72 hours of treatment was 50 μM.

Hep3B cells = test: MTT assay, antiproliferation on Hep3B cells; assay type: cell-based; conditions: for IC50: Homo sapiens, Hep3B cells, MTT; for anticancer activity compared with resveratrol and pterostilbene: Hep 3B and CAR cells, Table 1
Experimental: as §1, §2
The anti-proliferative ability of compound 2-4 in hepatocellular carcinoma was evaluated in Hep3B cells using MTT assay. Hep3B cells were treated with various concentrations of compound 2-4 for 48 and 72 hours.

[1] = dose up to 3.0 g/kg/day; cited from earlier work
[2] = 48 hours, read-out: CAR (IC50 (μM)) 48 hours
[3] = 72 hours, read-out: CAR (IC50 (μM)) 72 hours
[4] = 48 hours, read-out: Hep 3B (IC50 (μM)) 48 hours
[5] = 72 hours, read-out: Hep 3B (IC50 (μM)) 72 hours

SMILES	solubility (Water solubility assay) [µg/mL]	IC50 (CAR cells; [2]) [µM]	IC50 (CAR cells; [3]) [µM]	IC50 (Hep3B cells; [4]) [µM]	IC50 (Hep3B cells; [5]) [µM]	anticancer activity compared with resveratrol and pterostilbene (Hep3B cells)	28 days subchronic toxicity [1]
CC(CO)(CO)C(=O)Oc1ccc(/C=C/c2cc(O)cc(O)c2)cc1 [Compound 3-5]	52.9 (≈ 154 µM)	169	133	144	47.8		
CC(CO)(CO)C(=O)Oc1ccc(/C=C/c2cc(O)cc(OC(=O)C(C)(CO)CO)c2)cc1 [Compound 3-6, 3,4′-[2,2-Bis(hydroxymethyl)propanoxy]-resveratrol]	136 (≈ 295 µM)	105	113	54.2	36.8	more potent anticancer activity than resveratrol and pterostilbene	
CC(CO)(CO)C(=O)Oc1ccc(/C=C/c2cc(OC(=O)C(C)(CO)CO)cc(OC(=O)C(C)(CO)CO)c2)cc1 [Compound 4-3, 3,5,4′-[2,2-Bis(hydroxymethyl)propanoxy]-resveratrol]	372 (≈ 646 µM)	149	124	151	95		
CC(CO)(CO)C(=O)Oc1cc(O)cc(/C=C/c2ccc(O)cc2)c1 [Compound 5-3]	410 (≈ 1190 µM)	54.9	113	83.5	68.9		
CC(CO)(CO)C(=O)Oc1cc(/C=C/c2ccc(O)cc2)cc(OC(=O)C(C)(CO)CO)c1 [Compound 6-3, 3,5-[2,2-Bis(hydroxymethyl)propanoxy]-resveratrol]	455 (≈ 988 µM)	91.4	77	137	55.3		
COc1ccc(/C=C/c2cc(OC)cc(OC(=O)C(C)(CO)CO)c2)cc1 [Compound 7-3, 3,4′methyl-5-[2,2-Bis(hydroxymethyl)propanoxy]-resveratrol]	53.4 (≈ 143 µM)	64.2	67.3	70.8	48.7	more potent anticancer activity than resveratrol and pterostilbene	
COc1cc(/C=C/c2ccc(OC(=O)C(C)(CO)CO)cc2)cc(OC(=O)C(C)(CO)CO)c1 [Compound 8-3, 3-methyl-5,4′-[2,2-Bis(hydroxymethyl)propanoxy]-resveratrol]	> 1000	56.5	59.8	106	66.5		
CC(=O)Oc1cc(/C=C/c2ccc(OC(=O)C(C)(CO)CO)cc2)cc(OC(C)=O)c1 [Compound 9-4, 3,5-acetyl-4′-[2,2-Bis(hydroxymethyl)propanoxy]-resveratrol]	306 (≈ 715 µM)	103	116	148	62		
CC(=O)Oc1cc(/C=C/c2ccc(OC(=O)C(C)(CO)CO)cc2)cc(OC(=O)C(C)(CO)CO)c1 [Compound 10-4, 3-acetyl-5,4′-[2,2-Bis(hydroxymethyl)propanoxy]-resveratrol]	> 1000	122	119	> 200	> 200		
COc1cc(O)cc(/C=C/c2ccc(OC(=O)C(C)(CO)CO)cc2)c1 [Compound 11-3, 3-methyl-4′-[2,2-Bis(hydroxymethyl)propanoxy]-resveratrol]	35.8 (≈ 99.9 µM)	67.3	64	88.9	33.2	more potent anticancer activity than resveratrol and pterostilbene	
COc1cc(/C=C/c2ccc(OC(=O)C(C)(CO)CO)cc2)cc(OC(C)=O)c1 [Compound 12-3, 5-acetyl-3-methyl-4′-[2,2-Bis(hydroxymethyl)propanoxy]-resveratrol]	81.9 (≈ 205 µM)	52	50.3	85.2	36.8	more potent anticancer activity than resveratrol and pterostilbene	
COc1ccc(/C=C/c2cc(OC(=O)C(C)(CO)CO)cc(OC(=O)C(C)(CO)CO)c2)cc1 [Compound 13-3, 3,5-[2,2-Bis(hydroxymethyl)propanoxy]-4′-methyl-resveratrol]	337 (≈ 710 µM)	73.9	70.8	53.4	39.1	more potent anticancer activity than resveratrol and pterostilbene	
COc1cc(/C=C/c2ccc(OC(=O)C3OC(C)(C)OC3C3COC(C)(C)O3)cc2)cc(OC)c1 [Compound 14-5, Pterostilbene D-Ribonic Acid Diacetonide]	< 10	> 200	> 200	94.7	59.5		
COc1cc(/C=C/c2ccc(O)cc2)cc(OC)c1 [Pterostilbene, reference compound]	48 (≈ 187 µM)	100	98.3	75.3	48.9		no significant adverse biochemical parameters and toxic effects were noted
Oc1ccc(/C=C/c2cc(O)cc(O)c2)cc1 [Resveratrol, 3,5,4′-trihydroxy-trans-stilbene, reference compound]	107 (≈ 470 µM)	153	88.3	96.4	51.6		
